This is an account of results in ChEMBL document CHEMBL2046268 (Eur J Med Chem, 2012).

The test system of test [1] is A549. Briefly: Cytotoxicity against human A549 cells assessed as cell viability after 48 hrs by MTT assay. In kind it is functional, cell-based. The note with it: A549, 48 h.
The subject of test [2] is MCF7. Kind of test: Cytotoxicity against human MCF7 cells assessed as cell viability after 72 hrs by MTT assay. In kind it is functional, cell-based. The conditions noted are these: MCF7, 72 h.
For test [3], the system named is MCF7. Kind of test: Cytotoxicity against human MCF7 cells assessed as cell viability after 48 hrs by MTT assay. In kind it is functional, cell-based. The conditions noted are these: MCF7, 48 h.
Test [4] relates to A549. Kind of test: Cytotoxicity against human A549 cells assessed as cell viability after 72 hrs by MTT assay. In kind it is functional, cell-based. The note with it: A549, 72 h.
Test [5] relates to Vero. Kind of test: Cytotoxicity against african green monkey Vero cells assessed as cell viability after 48 hrs by MTT assay. In kind it is cell-based. The conditions noted are these: Chlorocebus sabaeus.
Test [6] has as its system HeLa. Briefly: Cytotoxicity against human HeLa cells assessed as cell viability after 72 hrs by MTT assay. In kind it is functional, cell-based.
For test [7], the system named is Vero. Briefly: Cytotoxicity against african green monkey Vero cells assessed as cell viability after 72 hrs by MTT assay. In kind it is cell-based. The conditions noted are these: Chlorocebus sabaeus.
Test [8] concerns HeLa. Briefly: Cytotoxicity against human HeLa cells assessed as cell viability after 48 hrs by MTT assay. In kind it is functional, cell-based.
Test [9] has as its system Vero. Briefly: Selectivity index, ratio of IC50 for african green monkey Vero cells to IC50 for human MCF7 cells after 48 hrs.

SMILES strings stand for the structures.

Turning to `CC1=C(C)C(=O)O[C@@H]([C@@H](C)[C@H]2CC[C@H]3[C@@H]4C[C@@H](O)[C@]5(C=O)CCC(=O)[C@]5(C)[C@H]4CC[C@]23C)C1`, the IC50 in test [1], in test [2], in test [3], in test [4], in test [5] and in test [6] was more than 40 µM in each case. Also, the IC50 in test [7] and in test [8] was more than 40 µM each time.
`CC1=C(CO)C(=O)O[C@@H](/C(C)=C2\[C@@H](O)C[C@H]3[C@@H]4C[C@H]5O[C@]56[C@@H](O)C=CC(=O)[C@]6(C)[C@H]4CC[C@]23C)C1`: the IC50 in [1] was more than 40 µM; in test [2], 6 µM; in test [3], 27.7 µM; in test [4], more than 40 µM; in test [5], more than 40 µM; in test [6], 31.1 µM. Further, the results for the half-maximal inhibitory concentration (IC50) in test [7] and in test [8] were more than 40 µM and 40 µM, respectively. Moreover, the “Ratio IC50” value in test [9] is reported as less than 1.
With `CC1=C(CO)C(=O)O[C@@H]([C@@H](C)[C@H]2CC[C@H]3[C@@H]4C[C@H](O)[C@]5(O)[C@@H](O)C=CC(=O)[C@]5(C)[C@H]4CC[C@]23C)C1`, the IC50 in [1] was more than 40 µM; in test [2] it was 36.2 µM; in [3], 38.4 µM; in test [4], 36.4 µM; in test [5], 40 µM; in test [6] it was 31.4 µM. Also, the 50% inhibitory concentration (IC50) was 26.9 µM in [7] and more than 40 µM in [8]. Further, in [9], the “Ratio IC50” value is 1.
As for `CC1=C(CO)C(=O)O[C@@H]([C@@H](C)[C@H]2CC[C@H]3[C@@H]4C[C@@H](O)[C@]5(C=O)CCC(=O)[C@]5(C)[C@H]4CC[C@]23C)C1`, the IC50 in [1], in [2], in [3], in test [4], in test [5] and in test [6] was more than 40 µM each time. In addition, the IC50 in test [7] and in test [8] was more than 40 µM in each case.
With `CC1=C(CO)C(=O)O[C@@H]([C@@H](C)[C@H]2CC[C@H]3[C@@H]4C[C@@H](O)[C@@]5(O)[C@@H](O)[C@@H](O)CC(=O)[C@]5(C)[C@H]4CC[C@]23C)C1`, the concentration for half-maximal inhibition (IC50) in [1], in test [2], in test [3], in [4], in [5] and in [6] was more than 40 µM each time. Moreover, the IC50 in test [7] and in test [8] was more than 40 µM in each case.
As for `CC1=C(CO)C(=O)O[C@@H]([C@@H](C)[C@@]2(O)CC[C@H]3[C@@H]4C[C@H]5O[C@]56[C@@H](O)C=CC(=O)[C@]6(C)[C@H]4CC[C@@]32C)C1`, the half-inhibitory concentration (IC50) was more than 40 µM in test [1]; 10.3 µM in [2]; 16.3 µM in [3]; 31.7 µM in [4]; 28.8 µM in test [5]; 19.8 µM in [6]. Moreover, the IC50 in [7] is 21.8 µM; in test [8], 17.7 µM. Besides, the “Ratio IC50” value in test [9] was found to be 1.8.
In the case of `CC(=O)OCC1=C(C)C[C@H]([C@@H](C)[C@H]2CC[C@H]3[C@@H]4C[C@H]5O[C@]56[C@@H](O)C=CC(=O)[C@]6(C)[C@H]4CC[C@]23C)OC1=O`, the IC50 in test [1] was found to be 6.7 µM; in [2], 2 µM; in test [3] it was 5.3 µM; in test [4], 4.4 µM; in test [5] it was 11.4 µM; in test [6], 4.7 µM. In addition, the 50% inhibitory concentration (IC50) was 8.5 µM in test [7] and 7.7 µM in test [8]. Further, the “Ratio IC50” value in test [9] is listed as 2.2.
Regarding `CC1=C(CO)C(=O)O[C@@H]([C@@H](C)[C@H]2CC[C@H]3[C@@H]4C[C@H](Cl)[C@]5(O)[C@@H](O)C=CC(=O)[C@]5(C)[C@H]4CC[C@]23C)C1`, the IC50 stood at 14.7 µM in test [1]; 1.3 µM in test [2]; 7.5 µM in test [3]; 8.6 µM in test [4]; 14.8 µM in test [5]; 12.1 µM in test [6]. Further, the IC50 in [7] amounted to 7.8 µM; in test [8] it was 13.4 µM. Besides, the “Ratio IC50” value in test [9] came to 2.
As for `CC1=C(C)C(=O)O[C@@H]([C@@H](C)C2=CC[C@H]3[C@@H]4C[C@H]5O[C@]56[C@@H](O)C=CC(=O)[C@]6(C)[C@H]4CC[C@]23C)C1`, the concentration for half-maximal inhibition (IC50) in test [1] was found to be 40 µM; in test [2] it was 2.2 µM; in test [3], 12.6 µM; in test [4], 5.5 µM; in test [5], 4.7 µM; in test [6] it was 8 µM. The IC50 in test [7] is 3.1 µM; in test [8], 21.5 µM. The “Ratio IC50” value in test [9] was less than 1.
Take `CC1=C(CO)C(=O)O[C@@H]([C@@H](C)[C@H]2CC[C@H]3[C@@H]4C[C@@H](O)[C@]5(C=O)C=CC(=O)[C@]5(C)[C@H]4CC[C@]23C)C1`: the IC50 in test [1], in test [2], in test [3], in test [4], in [5] and in [6] was more than 40 µM each time. Also, the IC50 in test [7] and in [8] was more than 40 µM in each case.
Take `CC1=C(CO)C(=O)O[C@@H]([C@@H](C)[C@H]2CC[C@H]3[C@@H]4C[C@H]5O[C@]56C(=O)C=CC(=O)[C@]6(C)[C@H]4CC[C@]23C)C1`: the 50% inhibitory concentration (IC50) worked out at 25.4 µM in [1]; 2.1 µM in test [2]; 3.2 µM in test [3]; 12.8 µM in test [4]; 7.7 µM in [5]; 15.2 µM in test [6]. For the same molecule, the IC50 in test [7] came out at 1.5 µM; in test [8] it was 18.4 µM. In addition, in [9], the “Ratio IC50” value is recorded as 2.4.
For `CC1=C(COC(C)(C)OC=O)C(=O)O[C@@H]([C@@H](C)[C@H]2CC[C@H]3[C@@H]4C[C@H]5O[C@]56[C@@H](O)C=CC(=O)[C@]6(C)[C@H]4CC[C@]23C)C1`, the IC50 in test [1] is more than 40 µM; in test [2], 18.3 µM; in test [3] it was 26.9 µM; in [4], more than 40 µM; in test [5] it was 27.8 µM; in test [6] it was 37.3 µM. Besides, the half-inhibitory concentration (IC50) was 18.5 µM in [7] and more than 40 µM in [8]. In addition, the “Ratio IC50” value in test [9] is reported as 1.
As to `CC(=O)OCC1=C(C)C[C@H]([C@@H](C)[C@H]2CC[C@H]3[C@@H]4C[C@H]5O[C@]56[C@@H](O)[C@@H](O)CC(=O)[C@]6(C)[C@H]4CC[C@]23C)OC1=O`, the IC50 in test [1] turned out to be 18.4 µM; in [2] it was 7.1 µM; in test [3], 9.2 µM; in test [4], 21.3 µM; in [5], 8.6 µM; in [6], 8.3 µM. For the same molecule, the 50% inhibitory concentration (IC50) in test [7] came out at 4.9 µM; in [8], 8.9 µM. Besides, the “Ratio IC50” value in test [9] was less than 1.
As to `Sc1ncnc2nc[nH]c12` [MERCAPTOPURINE ANHYDROUS], the “Ratio IC50” value in test [9] is 48.3.
